Key:
[1] = system: encephalomyocarditis (EMC) virus; assay: Prophylactic use against encephalomyocarditis (EMC) viral infection in mice; assay type: in vivo, mice (female albino); settings: single intraperitoneal, 18-24 hours before EMC challenge, tenth day after challenge, average of 2 runs
Method: Prophylactic use of compounds (1-I), (2-I) and (3-I) against infection by encephalomyocardis viral infection in mice
Three groups of ten female albino micce (20-25 g. body weight) were given single 0.5 ml. intraperitoneal injections containing dosage levels of 1.5, 5, and 15 mg. of the appropriate compound/kg. body weight, respectively. A fourth control group was given no such injection. Eighteen to twenty-four hours later all four groups were challenged with a 0.2 ml. subcutaneous injection containing 20-30 times the LD50, the dosage level causing a 50% death rate in ten days, of encephalomyocarditis (EMC) virus. The following relative average survival rates were found from an average of 2 such runs for compounds 1-I, 2-I and 3-I.
Antiviral activity is expressed as the average relative survival (Sr) of 2 runs of experimental groups compared to the controls on the tenth day after challenge. Sr is defined by the formula [formula] wherein Sr=relative survival;
Sx =percent survival after ten days in experimental group;
Xi =number of survivors on the ith day in experimental group;
ei =number of survivors on the ith day in control group.

Sarcoma 180J = Sarcoma 180J Model for Assessment of Tumor Rejection; assay type: in vivo, CD-1 mice (female); settings: for %ILS (percent life span): day 1 after 10^6 S-180J cells i.p., observed until death or 40 days, TWEEN 80/glycerol aqueous suspension; for numbers of 40 day survivors: six mice per group
Method: Sarcoma 180J Model for Assessment of Tumor Rejection
Six female CD-1 mice (20-25 g) per group received 10^6 S-180J cells (5-8 days old) intraperitoneally (i.p.) on day O. The animals then received formulated drug (0.1 ml) at the desired dose on day 1 following tumor cell injection. The animals were observed until death or 40 days, whichever occurred first. Results using compounds 1-I, 2-I, 3I and 4I are expressed as percent life span (% ILS).
^ a compounds were formulated in TWEEN 80/glycerol aqueous
^b Numbers in parenthesis are numbers of 40 day survivors.

B-16 cells = assay: Peritoneal Exudate Cell Mediated Cytotoxicity in Vitro (macrophages from drug-injected mice); assay type: cell-based; settings: Mus musculus, B16, effector:target 15:1, 24 hours at 37°, read-out: % Cytotoxicity (percent release drug-treated minus vehicle treated); for cytotoxicity at 1 mg/kg: 1 mg/kg injected to mice; for cytotoxicity at 5 mg/kg: 5 mg/kg injected to mice; for cytotoxicity at 25 mg/kg: 25 mg/kg injected to mice
Method: Peritoneal Exudate Cell Mediated Cytotoxicity in Vitro
Peritoneal exudate cells (PEC) from normal mice injected with immune potentiators or drug vehicle were harvested by gentle lavage with 3 ml cold RPMI 1640 medium (Grand Island Biological Co., N.Y.) supplemented with 5 units of heparin per ml of medium. Macrophages were identified morphologically, counted, and adjusted to 7.5×10^5 cells per ml of tissue culture medium; 0.2 ml volumes were added to microtiter wells containing 10^4 B-16 cells with ^125 IUDR label (effector: target cell ratio=15:1). After 24 hours at 37° in 5% CO2, supernatants were decanted and the adherent cells washed 3 times with pre-warmed RPMI 1640; the supernatant and washings were pooled and retained for counting. The adherent cells were treated with 1% sodium dodecyl sulfate (SDS) at room temperature for 30 minutes. The SDS-treated cells were harvested and the cells washed 3 times with RPMI 1640; cells and washings were pooled for counting. Supernatants and cells were counted in a Searle 1185 gamma counter. Results were expressed as: [formula]
The table below gives the percent cytotoxicity for 1-I, 2-I and 3-I wherein Percent Cytotoxicity equals (Percent release from drug-treated) minus (Percent release from vehicle treated).

SMILES	Average Relative Survival (Sr) ([1]; 1.5 mg/kg)	Average Relative Survival (Sr) ([1]; 5 mg/kg)	Average Relative Survival (Sr) ([1]; 15 mg/kg)	%ILS (percent life span) (Sarcoma 180J; 5 mg/kg) [%]	numbers of 40 day survivors (Sarcoma 180J; 5 mg/kg)	%ILS (percent life span) (Sarcoma 180J; 15 mg/kg) [%]	numbers of 40 day survivors (Sarcoma 180J; 15 mg/kg)	%ILS (percent life span) (Sarcoma 180J; 50 mg/kg) [%]	numbers of 40 day survivors (Sarcoma 180J; 50 mg/kg)	cytotoxicity at 1 mg/kg (B-16 cells) [%]	cytotoxicity at 5 mg/kg (B-16 cells) [%]	cytotoxicity at 25 mg/kg (B-16 cells) [%]
CCCCCCCCCCCCCCCCN(CCCCCCCCCCCCCCCC)Cc1cccc(C(O)CNCC)c1 (stereo not shown) [Compound 1-I, N-ethyl-2-[meta-N,N-di-n-hexadecylaminomethylphenyl]ethanolamine]	24.5	65.5	70	150	1	210	4	235	5	35.7	25.6	23.8
CCCCCCCCCCCCCCCCN(CCCCCCCCCCCCCCCC)Cc1cccc(C(O)CNC(C)(C)C)c1 (stereo not shown) [Compound 2-I, N-t-butyl-2-[meta-N,N-di-n-hexadecylamino-methylphenyl]ethanolamine]	42.5	62.5	65.5	154	1	134	–	160	2	31.2	33.6	27.2
CCCCCCCCCCCCCCCCN(CCCCCCCCCCCCCCCC)Cc1cccc(C(O)CN)c1 (stereo not shown) [Compound 4-I, 2-[meta-N,N-di-n-hexadecylaminomethylphenyl]ethanolamine]	–	–	–	125	–	181	4	212	6	–	–	–
CCCCCCCCCCCCCCCCN(CCCCCCCCCCCCCCCC)Cc1cccc(C(O)CNC(C)C)c1 (stereo not shown) [Compound 3-I, N-isopropyl-2-[meta-N,N-di-n-hexadecylaminomethylphenyl]ethanolamine]	27	54	87.5	154	2	185	4	212	6	42.4	35.1	33.4
